“And” between values parts separate entries of the source, which are not always exact repeats. Equal values may be shown once. Read-outs that look alike come from different tables or passages of the source.
Columns and labels:
[1] = test system: glutamate-induced neurotoxicity in ESNs; format: cell-based, mouse
ESNs [2] = format: cell-based, mouse
ESNs [3] = assay: cells; format: cell-based, mouse; details: read-out: EC50 of loss of viability (metabolic activity)
ESNs [4] = details: mouse
ESNs [5] = format: cell-based, mouse; remark: listed apart in the source
ESNs [6] = format: cell-based, mouse; remark: listed apart in the source
VAMP2 = VAMP2 (Mus musculus, UniProt P63044); format: cell-based
ESNs [7] = format: cell-based, mouse; remark: listed apart in the source
[8] = test system: Ca^2+ influx through LTX pores; format: cell-based, mouse
ESNs [9] = format: cell-based, mouse; details: read-out: EC50 for Ca^2+ uptake
BoNT/A-intoxicated ESNs = format: cell-based, mouse
ESNs [10] = format: cell-based, mouse; remark: listed apart in the source

Sequence of VAMP2 (P63044 2-116 limits assumed): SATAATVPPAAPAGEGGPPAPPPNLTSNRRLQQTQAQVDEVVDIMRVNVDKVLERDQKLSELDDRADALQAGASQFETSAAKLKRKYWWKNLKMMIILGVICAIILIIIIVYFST

## N[C@H](CCCP(=O)(O)O)C(=O)O [APV, R-2-amino-5-phosphonopentanoate]
[1]
  effect on NMDA-induced neurotoxicity: blocked in a dose-dependent manner
  effect on glutamate-induced cell death: prevented glutamate-induced cell death in a dose-dependent manner

## N#Cc1cc2c(cc1[N+](=O)[O-])=NC(=O)C(=O)N=2 [CNQX, 6-cyano-7-nitroquinoxaline-2,3-dione]
[1]
  effect on glutamate-induced cell death: not protective

## NCCCC(=O)O [GABA, γ-aminobutyric acid]
ESNs [2]
  acute Ca^2+ uptake: no effect

## CN[C@H](CC(=O)O)C(=O)O [NMDA, N-methyl-D-aspartate]
ESNs [3]
  EC50: 0.39 µM

## N[C@@H](CCC(=O)O)C(=O)[O-].[Na+] [glutamate, Mono-sodium glutamate]
ESNs [4]
  concentration at which primary necrosis was first observed: 3000 µM
ESNs [3]; Mus musculus, 24 h
  EC50: 0.41 µM
ESNs [5]
  Normalize log2 (FC) Casp4: 2.96
  Normalize log2 (FC) Casp6: 2.15
  Normalize log2 (FC) Casp12: 3.03
  Normalize log2 (FC) Cdk1: 3.11
  Normalize log2 (FC) CflaR: 2.54
  Normalize log2 (FC) Dap1: 2.84
  Normalize log2 (FC) Dapk2: 4.18
  Normalize log2 (FC) Dram1: 2.63
  Normalize log2 (FC) Fadd1: 1.98
  Normalize log2 (FC) Grin1: 0.39
  Normalize log2 (FC) Pawr: 3.49
  Normalize log2 (FC) Snap25: −0.52
  Normalize log2 (FC) Traf1: 5.02
ESNs [6]
  duration of evoked series of action potentials: 5 to 10 s

## NCc1cc(=O)[nH]o1 [muscimol]
ESNs [6]
  GABA-A receptor current: evokes a strong outward Cl− current

## Tetanospasmin neurotoxin [tetanus]
VAMP2
  VAMP2 signal by immunoblot: nearly complete loss of VAMP2 signal

## gadolinium chloride [Gd^3+]
[1]
  effect on glutamate-induced cell death: no effect on viability
ESNs [2]
  elimination of acute glutamate-evoked Ca^2+ signal: over 95%

## α-Latrotoxin [LTX]
ESNs [7]
  delay between addition and onset of Fluo-4 fluorescence: 1.5 min
[8]
  Ca^2+ influx, normalized to LTX (%): 100.0%
ESNs [9]
  EC50: 0.000175 µM
BoNT/A-intoxicated ESNs
  rescue of full-length SNAP-25: 92±4.6% and 98±1.7%
ESNs [10]
  decrease of total protein yield compared to controls: 44±16% and 52±19%
  decrease of total protein yield relative to untreated cultures: approximately 50%
